Assay results from US20140086938A1, “METHODS OF INHIBITING TUMOR GROWTH USING TTK ANTAGONISTS” (University Health Network, priority 2007, published 2014).

What was measured:
Assay in all cases: SRB cell viability after siRNA transfection
Format in all cases: cell-based, human
Conditions in all cases: 40 nM siRNA, day 5 post-transfection, normalized over siCONTROL
[1] = tested on: MCF-7
Description: (§1) Different normal breast and breast cancer cell lines were used for siRNA transfection. Cells were seeded at various concentrations, ranging from 1500 to 6000 per well according to cell growth rate, into 96 well plates. 40 nM individual siRNAs or 40 nM siRNA pool including four individual siRNAs at 10 nM each were transfected into cells using Lipofectamine-2000 24 hrs after cell seeding. Cells were then incubated at 37° C. for five days before cell viability assay were conducted.
(§2) SRB assay was performed to assess cell survival. SRB is a water-soluble dye that binds to the basic amino acids of the cellular proteins. Thus, colorimetric measurement of the bound dye provides an estimate of the total protein mass and is related to the cell number. The cells were fixed in situ by gently aspirating off the culture media and adding 50 μl ice cold 10% Tri-chloroacetic Acid (TCA) per well and incubate at 4° C. for 30-60 min. The plates were washed with tap water five times and allowed to air dry for 5 min. 50 μl of 0.4% (w/v) Sulforhodamine B solution in 1% (v/v) acetic acid was added per well and incubated for 30 min at RT for staining. Following staining, plates were washed four times with 1% acetic acid to remove any unbound dye and then allowed to air dry for 5 min. The stain was solubilized with 100 μl of 10 mM Tris pH 10.5 per well. Absorbance was read at 570 mn. The cell survival percentage after each siRNA(s) knock down was calculated over the non-silencing control siCTRL or siPOOL as well as siTOX as a transfection efficiency control.
(§3) To assess the effects of TTK knockdown on the viability of breast cancer cells, various breast cancer cell lines were transfected with each of the four TTK-targeting siRNAs individually, the pooled siRNA containing all four of the TTK-targeting siRNAs, or the siCONTROL siRNA, all at a concentration of 40 nM. At day 5 post-transfection, the viability of the cells was determined using the SRB assay described herein.

[2] = tested on: MDA-MB-435
Description: as §1, §2, §3

[3] = tested on: Hs578T
Description: as §1, §2, §3

[4] = tested on: HCC1419
Description: as §1, §2, §3

[5] = tested on: MDA-MB-453
Description: as §1, §2, §3

[6] = tested on: T47D
Description: as §1, §2, §3

[7] = tested on: MDA-MB-468
Description: as §1, §2, §3

[8] = tested on: MDA-MB-330
Description: as §1, §2, §3

[9] = tested on: CAMA-1
Description: as §1, §2, §3

[10] = tested on: BT474
Description: as §1, §2, §3

[11] = tested on: SKBr-3
Description: as §1, §2, §3

[12] = tested on: MDA-MB-231
Description: as §1, §2, §3

Substance	% survival [1] [%]	% survival [2] [%]	% survival [3] [%]	% survival [4] [%]	% survival [5] [%]	% survival [6] [%]	% survival [7] [%]	% survival [8] [%]	% survival [9] [%]	% survival [10] [%]	% survival [11] [%]	% survival [12] [%]
siRNA #4: siRNA targeting human TTK: 5′-GAUAAGAUCAUCCGACUUU-3′ (SEQ ID NO: 6) (listed as RNA, chemistry not given here)	0.63	0.93	1.16	1.05	0.56	1.19	1.46	0.72	0.77	0.90	0.91	0.58
siRNA #1: siRNA targeting human TTK: 5′-GCAAUACCUUGGAUGAUUA-3′ (SEQ ID NO: 3) (listed as RNA, chemistry not given here)	0.27	0.78	1.02	0.91	0.33	0.62	0.69	0.31	0.46	0.64	0.32	0.21
